Consider twelve compounds from US20100143346A1, “Treatment of Macular Degeneration” (priority 2006, published 2010).

The test system of one data set is gut vessel plexus. Put plainly: Zebrafish angiogenesis assay: scoring of the gut vessel plexus in transgenic GFP fish. In kind it is in vivo, Zebrafish (Danio rerio). Also noted: Inhibition of gut vessel formation: scale not given here. The conditions noted are these: for Inhibition of gut vessel formation: transgenic GFP fish incubated 24 h.p.f. to 5 d.p.f., gut vessel plexus scored by microscopy; for concentrations showing concentration-dependent inhibition of vessels: gut vessels. The source says:
Zebrafish (Danio rerio) are ideal organisms for the investigation of blood vessel growth because they are transparent in the embryonic and larval stages of development so that blood vessels marked with a fluorescent marker can clearly be seen in vivo in the live animal. Zebrafish blood vessel development is well characterised and vessels can be visualised by microangiography or by expressing green fluorescent protein in blood vessels (Isogai et al. (2001) Dev Biol 230(2): 278-301; Covassin et al. (2006) Proc Natl Acad Sci USA 103(17): 6554-9). Zebrafish are also ideal vertebrate organisms in which to screen for active small molecules because the larvae can be treated with compound simply by immersion of the fish in compound solution in wells of a standard multi-well plate (12, 24 or 96-wells).
Expression of the zebrafish PR can be detected as early as 48 hours post fertilisation and an assay was therefore developed to investigate the effects of compounds on blood vessel formation in zebrafish after this time. Previous studies on inhibition of blood vessel growth have focussed on formation of intersegmental vessels (Serbedzija et al. (1999) Angiogenesis 3(4): 353-9; Parng at al. (2002) Assay Drug Dev Technol 1(1 Pt 1): 41-8) but these particular vessels are specified and begin to form prior to the time when the PR is expressed in the zebrafish embryo. Accordingly, later-developing vessels around the gut, the vascular plexus of the mid gut which branches from the subintestinal vein and supraintestinal artery, were monitored.
A similar method was developed for screening of compounds using a line of fish that express GFP under control of an enhancer that drives expression in blood vessels, spinal cord and eyes. The fish are a cross between the et19.1 enhancer:Gal4 line (Scott et al. (2007) Nat Methods 4(4): 323-6) and a UAS:GFP line made in-house in a TL zebrafish background. Transgenic zebrafish embryos or larvae expressing GFP in the blood vessel walls were treated with test compounds by immersion in aqueous medium containing the compound at the required concentration, for a period of one or more days. At the end of the incubation period the fish were immobilised on their sides and the organisation and structure of the vasculature was visualised by fluorescent microscopy, which is possible because of the transparency of zebrafish larvae. The vessels can be identified by comparison with the online Interactive Atlas of Zebrafish Vascular Anatomy (Isogai et al. (2001) Dev Biol 230(2): 278-301).
Vessels such as the dorsal aorta, posterior cardinal vein, caudal artery, caudal vein, intersegmental vessels, dorsal longitudinal anastomotic vessels and the gut vessel plexus were assessed in each fish and compared to the control group. […] A subjective score was given to the fore/mid gut vessel plexus (by assessment of the number of visible vessels and extent of spread of the plexus), ranging from “3” for a normal extensively vascularised gut, to “0” for a complete absence of any branching of vessels around the gut. The intestinal vessel plexus forms between 3 and 5 days post fertilisation (d.p.f.) and so these assays were usually scored at 5 d.p.f. The vessels could also be quantified by digital photography and quantification of fluorescence levels or number of vessels in the region of interest.
Assays using Tg 043/050 uas:GFP+/−enhancer:gal4+/−×TL (“panretinal” enhancer) fish, incubated with various compounds (see Table below) from 24 h.p.f. to 5 d.p.f. (unless otherwise stated), then scoring the extent of the gut vessel plexus by microscopy. A score of 3 represents a good, fully formed gut vessel plexus, with 20 or more branched vessels; 2 represents as slightly less well formed plexus with 10-19 vessels; 1 represents a poorly formed plexus with 1-9 vessels; 0 represents a complete absence of visible gut vessels. Each of the compounds was tested in a 24 hour MTC assay in the TL strain of wild type fish (24-48 h.p.f.). […]

Data set [1] concerns TL strain of wild type fish. Kind of data set: 24 hour MTC assay in the TL strain of wild type fish. In kind it is in vivo, Zebrafish (Danio rerio). The conditions noted are these: 24-48 h.p.f. The method, then:
Assays using Tg 043/050 uas:GFP+/−enhancer:gal4+/−×TL (“panretinal” enhancer) fish, incubated with various compounds (see Table below) from 24 h.p.f. to 5 d.p.f. (unless otherwise stated), then scoring the extent of the gut vessel plexus by microscopy. A score of 3 represents a good, fully formed gut vessel plexus, with 20 or more branched vessels; 2 represents as slightly less well formed plexus with 10-19 vessels; 1 represents a poorly formed plexus with 1-9 vessels; 0 represents a complete absence of visible gut vessels. Each of the compounds was tested in a 24 hour MTC assay in the TL strain of wild type fish (24-48 h.p.f.). The MTC from this assay was used as the highest concentration for assays in the transgenic fish, with half-log intervals.

For data set [2] the following is noted: cited from earlier work.

On to `COC[C@]1(OC)CC[C@H]2[C@@H]3CCC4=CC(=O)CCC4=C3[C@@H](c3ccc(/C=N/O)cc3)C[C@@]21C` [Asoprisnil], for which the “Inhibition of gut vessel formation” value in the data set with gut vessel plexus was “+”. Also, the MTC in data set [1] is 10 µM.

In the case of `CC1=CC(C)(C)Nc2ccc(-c3cccc(C#N)c3)cc21` [LG120753], in the data set with gut vessel plexus, the “concentrations showing concentration-dependent inhibition of vessels” value is 0.3 to 3 µM and the “Inhibition of gut vessel formation” value is listed as “+”. This compound displayed an MTC in data set [1] of 3 µM.

On to `CC1=CC(C)(C)Nc2ccc(-c3csc(C#N)c3)cc21` [LG121046], for which the “Inhibition of gut vessel formation” value in the data set with gut vessel plexus is reported as “++”. In data set [1], this compound gave an MTC of 3 to 10 µM.

Regarding `CC#C[C@]1(O)CC[C@H]2[C@@H]3CCC4=CC(=O)CCC4=C3[C@@H](c3ccc(N(C)C)cc3)C[C@@]21C` [RU486, 17beta-hydroxy-11-beta-(4-dimethylaminophenyl)-17alpha-(prop-1-ynyl)-estra-4,9-dien-3-one], in the data set with gut vessel plexus, the “inhibition of gut vessel formation (in words)” value is “dose-dependent” and the “Inhibition of gut vessel formation” value was “+++”. For the same compound, in the data set with gut vessel plexus (10 μM of each (RU486 and progesterone)), the “rescue of vessel inhibition by progesterone” value is given as “rescued by progesterone”. This compound also displayed an MTC in data set [1] of 10 to 30 µM. Besides, in data set [2] (after oral dosing), the plasma half life was 20 to 30 h and the “time to peak plasma levels” value was 1 to 2 h. Moreover, the oral bioavailability in data set [2] (oral) is 40-70%.

Turning to `CC#CC1(O)CCC2C3CCC4=CC(=O)CCC4=C3C(c3ccc(NC)cc3)CC21C` (centres unmarked) [RU42633], the “concentration of best inhibition of gut vessels” value in the data set with gut vessel plexus (concentration response curves, 1-5 dpf) came to 30 µM. For the same compound, in the data set on gut vessel plexus, the “Inhibition of gut vessel formation” value is given as “+++”. Also, the MTC in data set [1] came to 30 µM.

Regarding `CN(C)c1ccc(C2CC3(C)C(CCC3(O)C#CCO)C3CCC4=CC(=O)CCC4=C23)cc1` (centres unmarked) [RU42698], in the data set on gut vessel plexus, the “concentrations showing concentration-dependent inhibition of vessels” value was 30 to 100 µM and the “Inhibition of gut vessel formation” value is “++”. In data set [1], this compound had an MTC of 100 µM.

With `CC#CC1(O)CCC2C3CCC4=CC(=O)CCC4=C3C(c3ccc(N)cc3)CC21C` (centres unmarked) [RU42848], in the data set on gut vessel plexus, the “Inhibition of gut vessel formation” value was “+”. Moreover, the MTC in data set [1] is 100 µM.

Regarding `Cc1cc(C)c(/C=C2\C(=O)Nc3ccccc32)[nH]1` [SU5416], the “inhibition of gut vessel formation (in words)” value in the data set on gut vessel plexus was “vessel formation was inhibited”.

In the case of `CC1(C)OC(=O)Nc2ccc(-c3cc(F)cc(Cl)c3)cc21` [Wyeth 4g], in the data set with gut vessel plexus, the “Inhibition of gut vessel formation” value was “++”. The MTC in data set [1] was 3 µM.

For `CC1(C)OC(=O)Nc2ccc(-c3cc(F)cc(C#N)c3)cc21` [Wyeth 4h], the “concentration of maximal inhibition of gut vessels” value with gut vessel plexus (data not shown) turned out to be 30 µM. For the same compound, in the data set with gut vessel plexus, the “Inhibition of gut vessel formation” value is given as “++”. Besides, in data set [1], the MTC was 30 µM.

In the case of `CC1(C)OC(=O)Nc2ccc(-c3ccc(F)c(Cl)c3)cc21` [Wyeth 4j], in the data set with gut vessel plexus, the “Inhibition of gut vessel formation” value is listed as “+”. In addition, the MTC in data set [1] fell in the range of 1 to 3 µM.

With `CC1(C)OC(=O)Nc2ccc(-c3ccc(F)c(C#N)c3)cc21` [Wyeth 6], in the data set with gut vessel plexus, the “Inhibition of gut vessel formation” value was “+”. In data set [1], this compound returned an MTC of 100 µM.
